Measurements reported in patent EP1170007A1, “REMEDIES” (Takara Shuzo Co, Ltd., priority 1999, dated 2000).
Where “and” joins values, the source holds several entries; their conditions need not be identical. Identical values can stand only once.

How the values were obtained:
[1] = tested on: nerve growth factor production by L-M cells; assay: Enhancement of nerve growth factor production in L-M cells (enzyme immunoassay); assay type: cell-based, Rat
Procedure: Rat fibroblast L-M cells (ATCC CCL-1.2) were suspended in a M199 medium (Gibco) containing 0.5% Bacto Peptone (Gibco) at a concentration of 1.0 x 10^5 cells/ml. 1 ml of the suspension was inoculated into each well of a 24-well plate. The cells were cultured aseptically. After culturing for 2 days, the medium was removed and substituted with a M199 medium containing 0.5% bovine serum albumin (Sigma). Then, cyclopentenone (final concentration of 1 to 25 µM), 4HCP (Aldrich) (final concentration of 12.5µM) or dipropionylcyclopentenone (final concentration of 3.1 to 9.4 µM) was added thereto. […]
After completion of the incubation, the concentration of nerve growth factor in the culture was measured by enzyme immunoassay (NGF Emax Immuno Assay System: Promega). […]

[2] = tested on: HGF production, MRC-5 cells; assay: Enhancement of HGF production in MRC-5 cells (ELISA); assay type: cell-based, Human; conditions: for Increase in HGF production: 24 hours, negative control defined as 100% (7.2 ng/ml)
Procedure: MRC-5 cells (CCL171, Dainippon Pharmaceutical) were suspended in a DME medium (Bio Whittaker) containing 10% fetal calf serum at a concentration of 1 x 10^5 cells/ml. 500 µl of the suspension was placed into a 48-well cell culture plate. After culturing at 37°C in the presence of 5% CO2 for 24 hours, the medium was exchanged for a DME medium containing 1% fetal calf serum. Then, one of samples was added thereto. The plate was incubated for additional 24 hours. The medium was then recovered, and the amount of HGF in the culture medium was measured using Quantikine Human Hepatocyte Growth Factor (HGF) ELISA Kit (Funakoshi). The amount of HGF produced was expressed defining a negative control as 100%. In this case, the amount of HGF produced for the negative control was 7.2 ng/ml. Cyclopentenone (at a final concentration of 20, 40 or 160 µM), GM (at a final concentration of 20, 40, 80 or 160 µM), or dipropionylcyclopentenone (at a final concentration of 32 or 64 µM) was added as a sample. As a negative control, distilled water was added in the same volume as the sample. As a positive control, prostaglandin E1 was added at a final concentration of 0.01, 0.1, 1 or 10 µM.

[3] = tested on: interleukin-12; assay: Intraperitoneal interleukin-12 in mice inoculated with Ehrlich cancer cells (ELISA); assay type: in vivo, ddY mouse; conditions: for Amount of intraperitoneal interleukin-12: 10 mg/kg intraperitoneally 1 day after inoculation, individual mice
Procedure: ddY mouse (female, 5 weeks old, weighing about 25 g) purchased from Japan SLC was used for experiments after preliminary breeding for 1 week. 1 x 10^6 Ehrlich cancer cells were intraperitoneally inoculated into the mouse. 10 mg/kg of cyclopentenone was intraperitoneally administered 1 day after the inoculation. The mouse was sacrificed by decapitating and exsanguinating 8 or 12 days after the inoculation with cancer cells. 2 ml, which is the same volume as that of ascites retained in the control mouse, of PBS (-) (Nissui Pharmaceutical) containing 1% bovine serum albumin (Sigma) was intraperitoneally injected into the mouse, which was recovered after extensive massage. For a control group, ascites was directly recovered. The recovered ascites and peritoneal lavage fluid were centrifuged at 2000 rpm for 5 minutes to recover supernatants. The supernatants were used to quantify the amounts of interleukin-12 using an ELISA kit for mouse interleukin-12 measurement (Endogen).

[4] = tested on: mouse; assay: Single oral dose toxicity in mouse; assay type: in vivo; conditions: mouse, in vivo, po, 100 mg/kg

O=C1C=CC(O)C1O (stereo not shown) [cyclopentenone, 4,5-dihydroxy-2-cyclopenten-1-one]
Nerve growth factor concentration ([1]; 1 µM, 24 hours, 0 µM control 0.570): 0.700 ng/mL | Nerve growth factor concentration ([1]; 2.5 µM, 24 hours, 0 µM control 0.570): 0.740 ng/mL | Nerve growth factor concentration ([1]; 5 µM, 24 hours, 0 µM control 0.570): 0.870 ng/mL | Nerve growth factor concentration ([1]; 7.5 µM, 24 hours, 0 µM control 0.570): 0.900 ng/mL | Nerve growth factor concentration ([1]; 10 µM, 24 hours, 0 µM control 0.570): 1.080 ng/mL | Nerve growth factor concentration ([1]; 12.5 µM, 24 hours, 0 µM control 0.570): 1.340 ng/mL | Nerve growth factor concentration ([1]; 15 µM, 24 hours, 0 µM control 0.570): 1.550 ng/mL | Nerve growth factor concentration ([1]; 17.5 µM, 24 hours, 0 µM control 0.570): 2.150 ng/mL | Nerve growth factor concentration ([1]; 20 µM, 24 hours, 0 µM control 0.570): 1.900 ng/mL | Nerve growth factor concentration ([1]; 25 µM, 24 hours, 0 µM control 0.570): 1.540 ng/mL | production of nerve growth factor by L-M cells (result in words) ([1]; 24 hours incubation): enhanced the production of nerve growth factor by L-M cells in a concentration-dependent manner | Nerve growth factor concentration ([1]; time course: 15 µM, cultivation time 0 hour, control 0.000): 0.000 ng/mL | Nerve growth factor concentration ([1]; time course: 15 µM, cultivation time 3 hour, control 0.028): 0.050 ng/mL | Nerve growth factor concentration ([1]; time course: 15 µM, cultivation time 6 hour, control 0.233): 0.359 ng/mL | Nerve growth factor concentration ([1]; time course: 15 µM, cultivation time 12 hour, control 0.575): 0.686 ng/mL | Nerve growth factor concentration ([1]; time course: 15 µM, cultivation time 24 hour, control 0.658): 1.186 ng/mL | Nerve growth factor concentration ([1]; time course: 15 µM, cultivation time 48 hour, control 0.736): 1.236 ng/mL | Nerve growth factor concentration ([1]; time course: 17.5 µM, cultivation time 0 hour, control 0.000): 0.000 ng/mL | Nerve growth factor concentration ([1]; time course: 17.5 µM, cultivation time 3 hour, control 0.028): 0.054 ng/mL | Nerve growth factor concentration ([1]; time course: 17.5 µM, cultivation time 6 hour, control 0.233): 0.205 ng/mL | Nerve growth factor concentration ([1]; time course: 17.5 µM, cultivation time 12 hour, control 0.575): 0.635 ng/mL | Nerve growth factor concentration ([1]; time course: 17.5 µM, cultivation time 24 hour, control 0.658): 1.535 ng/mL | Nerve growth factor concentration ([1]; time course: 17.5 µM, cultivation time 48 hour, control 0.736): 1.492 ng/mL | Nerve growth factor concentration ([1]; time course: 20 µM, cultivation time 0 hour, control 0.000): 0.000 ng/mL | Nerve growth factor concentration ([1]; time course: 20 µM, cultivation time 3 hour, control 0.028): 0.082 ng/mL | Nerve growth factor concentration ([1]; time course: 20 µM, cultivation time 6 hour, control 0.233): 0.179 ng/mL | Nerve growth factor concentration ([1]; time course: 20 µM, cultivation time 12 hour, control 0.575): 0.581 ng/mL | Nerve growth factor concentration ([1]; time course: 20 µM, cultivation time 24 hour, control 0.658): 1.681 ng/mL | Nerve growth factor concentration ([1]; time course: 20 µM, cultivation time 48 hour, control 0.736): 1.874 ng/mL | Increase in HGF production ([2]; 20 µM): 144% | Increase in HGF production ([2]; 40 µM): 218% | Increase in HGF production ([2]; 160 µM): 238% | amount of HGF produced as compared with the negative control (result in words) ([2]; negative control: distilled water): significantly increased | Amount of intraperitoneal interleukin-12 ([3]; After 8 Days, control group ND): 11.0 pg/mL and 100.0 pg/mL and 25.0 pg/mL | Amount of intraperitoneal interleukin-12 ([3]; After 12 Days, control group all dead): 43.0 pg/mL and 97.2 pg/mL and 66.4 pg/mL | activity of enhancing interleukin-12 production (result in words) ([3]; Ehrlich cancer cell inoculated mice): an activity of enhancing interleukin-12 production by cyclopentenone was observed for each mouse | death after single oral dose [4]: no example of death was observed
